# Earlier results as cited in patent US9206100B2, “Route to synthetic analogues of Rocaglamide and Aglafoline using cascade transformations initiated by oxy-cope rearrangement of bis-alkynes” (The Florida State University Research Foundation, Inc., priority 2010, dated 2015).
# Tested on: various human leukemia cell lines
# Settings: through the intrinsic death pathway; human leukemia cell lines and ALL, CML and AML cells freshly isolated from patients
smiles,measurement,value
COc1ccc([C@@]23Oc4cc(OC)cc(OC)c4[C@]2(O)[C@H](O)[C@H](C(=O)N(C)C)[C@H]3c2ccccc2)cc1 [Rocaglamide],apoptosis induction,induces apoptosis
